Reference: publication PMC9882606, “Rationally designed inhibitors of the Musashi protein-RNA interaction by hotspot mimicry” (Research Square, 2023)

Tests used:
MSI1 RRM1 = target: T1, MSI1 RRM1 (Homo sapiens, UniProt O43347); test: HSQC chemical shift mapping; assay type: binding; details: MSI1 RRM1 in presence vs absence of compound
T1 sequence (O43347 20-110 limits assumed): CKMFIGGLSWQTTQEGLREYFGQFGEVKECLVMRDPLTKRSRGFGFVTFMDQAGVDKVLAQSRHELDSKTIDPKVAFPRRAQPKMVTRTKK
Text: To test the hypothesis that R12–8–44–3 engages MSI1 RRM1 though specific binding interactions (rather than non-specific aggregation), we used HSQC chemical shift mapping. We collected spectra for this construct in the presence and absence of R12–8–44–3 (Figure 3a), using previously-reported assignments from a very similar construct. […] While not all peaks were assigned in our reference spectrum, we gratifyingly find that of the assigned peaks, those with the largest chemical shift differences (Phe23, Lys93) comprise exactly the expected binding site for R12–8–44–3 (Figure 3b).
Figure 3: Structural characterization of R12–8–44–3 / MSI1. (A) HSQC spectrum of MSI1 RRM1 collected in the presence (red) or absence (black) of R12–8–44–3. Assigned peaks showing the strongest chemical shift difference are labeled (Phe23, Lys93). (B) Mapping the location of these residues to our model of R12–8–44–3/MSI1 confirms that these residues comprise the intended binding site.

MSI2 = MSI2 (Homo sapiens, UniProt Q96DH6); test: MS2-TRAP aptamer pull-down reporter assay in HEK293 cells; assay type: cell-based; set-up: HEK293 cells (with a high baseline MSI2 expression); endogenous in cells; host or cells: HEK293; details: HEK293, 24 h treatment
Chain of MSI2 (Q96DH6 whole entry): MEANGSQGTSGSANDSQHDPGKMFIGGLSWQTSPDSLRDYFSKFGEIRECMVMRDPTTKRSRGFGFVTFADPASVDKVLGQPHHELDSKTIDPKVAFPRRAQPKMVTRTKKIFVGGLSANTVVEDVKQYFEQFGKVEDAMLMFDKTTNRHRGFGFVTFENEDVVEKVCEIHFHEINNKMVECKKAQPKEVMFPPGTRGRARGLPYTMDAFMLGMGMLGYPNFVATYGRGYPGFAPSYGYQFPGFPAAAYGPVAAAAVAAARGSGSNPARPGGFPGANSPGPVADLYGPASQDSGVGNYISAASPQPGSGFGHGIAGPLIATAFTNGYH
Text: Figure 5: Characterization of R12–8–44–3 in a reporter cell line. […] As a positive control, Ro 08–2750 (aka “Ro”) is also included in these studies. (B) Schematic of reporter assay. HEK293 cells are transfected with a plasmid encoding an arbitrary gene (Luc) with UAG repeats (to recruit MSI2) and MS2 repeats (for pulldown) appended to its 3’ UTR. The same vector also includes FLAG-labeled MS2-BP. Upon anti-FLAG immunoprecipitation (IP), the FLAG-labeled MS2-BP allows purification of the Luc mRNA along with any associated factors. (C) Prior to IP, cells express Luc mRNA to a similar extent irrespective of whether they were treated with DMSO, R12-neg, R12–8–44–3, or Ro. (D) Prior to IP (“input”), MSI2 is detected in all samples to a similar extent (as is KU-86 loading control). After pulldown of Luc mRNA, MSI2 is found associated with the mRNA in cells treated with DMSO or R12-neg, but not in cells that had been treated with R12–8–44–3 or Ro. Representative image is shown; quantification is plotted as the average of 2 independent experiments ± S.E.M. Statistical analysis was performed using unpaired two tailed t-test, with * indicating p<0.05. Uncropped Western blots from this experiment are provided as Figure S8.
To determine whether inhibition of MSI1/MSI2 by R12–8–44–3 would apply in a cellular context, we adapted an aptamer pull-down reporter assay that we previously used to validate candidate Musashi target genes. Briefly, our approach is a variation of the MS2-TRAP (MS2-tagged RNA affinity purification) method, which uses bacteriophage protein MS2-BP to extract from cells any factors that associate with RNAs containing a specific stem-loop structure (MS2) from the phage genome. Here, we designed an mRNA construct that would include a series of MS2 hairpins and also a MSI2 recognition sequence. We transfected this construct into cells that also express FLAG-tagged MS2-BP (a protein unrelated to MSI2). By affinity purification using the FLAG tag, proteins bound to the designed mRNA can be extracted from cells.
To test for inhibition of MSI2 in cells, we transfected HEK293 cells (with a high baseline MSI2 expression), with the pMS2-LUC-3’UTR from our previous studies. This vector appends onto the 3’UTR of an arbitrary gene (in this case luciferase) two key elements: UAG-motifs comprising a MSI2 recognition sequence, and a series of five MS2 hairpins. The same vector also encodes the FLAG-MS2-BP fusion needed for affinity purification (Figure 5b). Cells were then treated with each compound of interest for 24 h, and then the cells were subsequently harvested and used for anti-FLAG immunoprecipitation. […] Using qPCR we evaluated the amount of Luc mRNA in cells treated with R12–8–44–3, R12-neg, or Ro, and found this to be unchanged (Figure 5c).

- HSQC chemical shift changes on addition of compound (MSI1 RRM1): only a small number of peaks shift
- MSI2 purified with reporter mRNA (anti-FLAG pulldown) (MSI2): much less MSI2 is purified
- total amount of MSI2 in cells (MSI2; input prior to IP): unaffected
- amount of Luc mRNA in cells (qPCR) (MSI2; prior to IP): unchanged
SMILES: Cc1cc(C(=O)OCc2nc(N)c3c(C)c(C)sc3n2)c(N)cc1F [R12–8–44–3]
